Laboratory results from patent US20240208934A1, “ULK1/2 INHIBITORS AND THEIR USE THEREOF” (LifeArc, priority 2021, published 2024).

System: ULK
Assay: ULK radiometric assay (33P incorporation onto MBP substrate, glass fiber capture filter)
Settings: ULK Biochemical activity; 20 uM ATP, 0.2 mg/mL MBP; averages of at least two independent experiments
Procedure, shortened: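 ³³P transfer from 20 uM ATP onto 0.2 mg/mL MBP in Tris-HCl pH 7.5 with MgCl2, EGTA, BSA and β-mercaptoethanol, captured on glass fiber filters. Ten-point half-log dilutions at 10% DMSO final, duplicate wells normalized to DMSO controls; IC50 from four-parameter fit, averaged over ≥2 independent experiments.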

**Q.** Which IC50 does the source give for `COc1cc2c(cc1Nc1ncc(C(F)(F)F)c(NCCCN3CCCCC3=O)n1)CNCC2` [Example 20, 1-[3-[[2-[(6-Methoxy-1,2,3,4-tetrahydroisoquinolin-7-yl)amino]-5-(trifluoromethyl)pyrimidin-4-yl]amino]propyl]piperidin-2-one] here?
**A.** < 200 nM
